Laboratory results from PubChem BioAssay (NCI).
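Where inhibition never reached the appropriate level, the endpoint shown equals the highest concentration tested. Otherwise, values were interpolated linearly from a five-concentration, 48-hour dose response in 96-well plates. At the GI50, growth is halved. TGI marks complete inhibition of growth.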

Experiments:
Assay in all cases: growth of human tumour cells (NCI), 48 h
ACHN renal = tested on: ACHN renal
SK-MEL-28 melanoma = tested on: SK-MEL-28 melanoma
SF-295 CNS = tested on: SF-295 CNS
UACC-62 melanoma = tested on: UACC-62 melanoma
UACC-257 melanoma = tested on: UACC-257 melanoma
SF-539 CNS = tested on: SF-539 CNS
NCI-H23 lung = tested on: NCI-H23 lung
K-562 leukemia = tested on: K-562 leukemia
SK-MEL-5 melanoma = tested on: SK-MEL-5 melanoma
OVCAR-8 ovarian = tested on: OVCAR-8 ovarian
OVCAR-5 ovarian = tested on: OVCAR-5 ovarian
HOP-62 NSCLC = tested on: HOP-62 NSCLC
OVCAR-4 ovarian = tested on: OVCAR-4 ovarian
MALME-3M melanoma = tested on: MALME-3M melanoma
MDA-MB-435 = tested on: MDA-MB-435
IGROV1 ovarian = tested on: IGROV1 ovarian
SR leukemia = tested on: SR leukemia
CAKI-1 renal = tested on: CAKI-1 renal
A498 renal = tested on: A498 renal
HCT-15 colon = tested on: HCT-15 colon
LOX IMVI melanoma = tested on: LOX IMVI melanoma
MCF7 breast = tested on: MCF7 breast
U251 CNS = tested on: U251 CNS
M14 melanoma = tested on: M14 melanoma
HCT-116 colon = tested on: HCT-116 colon
HT29 colon = tested on: HT29 colon
786-0 renal = tested on: 786-0 renal
RPMI-8226 leukemia = tested on: RPMI-8226 leukemia
HS 578T breast = tested on: HS 578T breast
MOLT-4 leukemia = tested on: MOLT-4 leukemia
SNB-75 CNS = tested on: SNB-75 CNS
DU-145 prostate = tested on: DU-145 prostate
EKVX NSCLC = tested on: EKVX NSCLC
HOP-92 NSCLC = tested on: HOP-92 NSCLC
T-47D breast = tested on: T-47D breast
NCI/ADR-RES ovarian = tested on: NCI/ADR-RES ovarian
BT-549 breast = tested on: BT-549 breast
CCRF-CEM leukemia = tested on: CCRF-CEM leukemia
RXF 393 renal = tested on: RXF 393 renal
TK-10 renal = tested on: TK-10 renal
SK-MEL-2 melanoma = tested on: SK-MEL-2 melanoma
UO-31 renal = tested on: UO-31 renal
NCI-H226 lung = tested on: NCI-H226 lung
SN12C renal = tested on: SN12C renal
SF-268 CNS = tested on: SF-268 CNS
A549 NSCLC = tested on: A549 NSCLC
OVCAR-3 ovarian = tested on: OVCAR-3 ovarian
MDA-MB-231 breast = tested on: MDA-MB-231 breast
HL-60(TB) leukemia = tested on: HL-60(TB) leukemia
PC-3 prostate = tested on: PC-3 prostate
COLO 205 colon = tested on: COLO 205 colon
SK-OV-3 ovarian = tested on: SK-OV-3 ovarian
SNB-19 CNS = tested on: SNB-19 CNS
KM12 colon = tested on: KM12 colon
HCC-2998 colon = tested on: HCC-2998 colon
SW-620 colon = tested on: SW-620 colon
NCI-H460 lung = tested on: NCI-H460 lung

CN1CN(c2ccccc2)C2(CCN(Cc3nc4ccccc4s3)CC2)C1=O
TGI (ACHN renal): 39.8 µM
TGI (SK-MEL-28 melanoma): 31.5 µM
TGI (SF-295 CNS): 32 µM
TGI (UACC-62 melanoma): 30.1 µM
TGI (UACC-257 melanoma): 30.4 µM
TGI (SF-539 CNS): 32.4 µM
TGI (NCI-H23 lung): 34.2 µM
TGI (K-562 leukemia): 32.4 µM
TGI (SK-MEL-5 melanoma): 29.6 µM
TGI (OVCAR-8 ovarian): 28.8 µM
TGI (OVCAR-5 ovarian): 34.1 µM
TGI (HOP-62 NSCLC): 30.7 µM
TGI (OVCAR-4 ovarian): 38 µM
TGI (MALME-3M melanoma): 31.8 µM
TGI (MDA-MB-435): 32.3 µM
TGI (IGROV1 ovarian): 30.4 µM
TGI (SR leukemia): 33.9 µM
TGI (CAKI-1 renal): 49.6 µM
TGI (A498 renal): 30.7 µM
TGI (HCT-15 colon): 35.1 µM
TGI (LOX IMVI melanoma): 34.9 µM
TGI (MCF7 breast): 29.5 µM
TGI (U251 CNS): 30 µM
TGI (M14 melanoma): 26.3 µM
TGI (HCT-116 colon): 28.1 µM
TGI (HT29 colon): 30.7 µM
TGI (786-0 renal): 31.3 µM
TGI (RPMI-8226 leukemia): 36.2 µM
TGI (HS 578T breast): 41.8 µM
TGI (MOLT-4 leukemia): 34.3 µM
TGI (SNB-75 CNS): 32.6 µM
TGI (DU-145 prostate): 38.3 µM
TGI (EKVX NSCLC): 48.3 µM
TGI (HOP-92 NSCLC): 28.5 µM
TGI (T-47D breast): 32 µM
TGI (NCI/ADR-RES ovarian): 33.5 µM
TGI (BT-549 breast): 30.3 µM
TGI (CCRF-CEM leukemia): 41.6 µM
TGI (RXF 393 renal): 29.9 µM
TGI (TK-10 renal): 34.9 µM
TGI (SK-MEL-2 melanoma): 34.1 µM
TGI (UO-31 renal): 29 µM
TGI (NCI-H226 lung): 36.2 µM
TGI (SN12C renal): 31.7 µM
TGI (SF-268 CNS): 44.3 µM
TGI (A549 NSCLC): 33.4 µM
TGI (OVCAR-3 ovarian): 32.4 µM
TGI (MDA-MB-231 breast): 27.2 µM
TGI (HL-60(TB) leukemia): 29.1 µM
TGI (PC-3 prostate): 28.8 µM
TGI (COLO 205 colon): 32.1 µM
TGI (SK-OV-3 ovarian): 52.7 µM
TGI (SNB-19 CNS): 28.6 µM

COc1ccc(-c2cc3c(OC)c(OC)c(OC)cc3oc2=O)cc1
GI50 (ACHN renal): 7.47 µM
TGI (ACHN renal): > 100 µM
GI50 (SK-MEL-28 melanoma): 5.28 µM
TGI (SK-MEL-28 melanoma): > 100 µM
GI50 (KM12 colon): 1.79 µM
TGI (KM12 colon): > 100 µM
GI50 (SF-295 CNS): 4.63 µM
TGI (SF-295 CNS): > 100 µM
GI50 (UACC-62 melanoma): 3.95 µM
TGI (UACC-62 melanoma): > 100 µM
GI50 (UACC-257 melanoma): 5.47 µM
TGI (UACC-257 melanoma): > 100 µM
GI50 (SF-539 CNS): 4.09 µM
TGI (SF-539 CNS): 22.9 µM
GI50 (NCI-H23 lung): 3.49 µM
TGI (NCI-H23 lung): > 100 µM
GI50 (K-562 leukemia): 2.02 µM
TGI (K-562 leukemia): > 100 µM
GI50 (SK-MEL-5 melanoma): 2.57 µM
TGI (SK-MEL-5 melanoma): 8.51 µM
GI50 (OVCAR-8 ovarian): 5 µM
TGI (OVCAR-8 ovarian): > 100 µM
GI50 (OVCAR-5 ovarian): 17.8 µM
TGI (OVCAR-5 ovarian): > 100 µM
GI50 (HOP-62 NSCLC): 4.68 µM
TGI (HOP-62 NSCLC): > 100 µM
GI50 (OVCAR-4 ovarian): 7.6 µM
TGI (OVCAR-4 ovarian): > 100 µM
GI50 (MALME-3M melanoma): 4.37 µM
TGI (MALME-3M melanoma): > 100 µM
GI50 (MDA-MB-435): 0.444 µM
TGI (MDA-MB-435): 2.37 µM
GI50 (IGROV1 ovarian): 5.81 µM
TGI (IGROV1 ovarian): > 100 µM
GI50 (SR leukemia): 1.11 µM
TGI (SR leukemia): 12.7 µM
GI50 (CAKI-1 renal): 4.59 µM
TGI (CAKI-1 renal): > 100 µM
GI50 (A498 renal): 1.7 µM
TGI (A498 renal): 6.98 µM
GI50 (HCT-15 colon): 3.43 µM
TGI (HCT-15 colon): > 100 µM
GI50 (LOX IMVI melanoma): 5.32 µM
TGI (LOX IMVI melanoma): > 100 µM
GI50 (MCF7 breast): 3.69 µM
TGI (MCF7 breast): > 100 µM
GI50 (U251 CNS): 4.27 µM
TGI (U251 CNS): > 100 µM
GI50 (M14 melanoma): 3.31 µM
TGI (M14 melanoma): > 100 µM
GI50 (HCT-116 colon): 3.97 µM
TGI (HCT-116 colon): 18.6 µM
GI50 (HCC-2998 colon): 4.41 µM
TGI (HCC-2998 colon): > 100 µM
GI50 (HT29 colon): 3.42 µM
TGI (HT29 colon): 13.1 µM
GI50 (786-0 renal): 6.91 µM
TGI (786-0 renal): > 100 µM
GI50 (SW-620 colon): 2.79 µM
TGI (SW-620 colon): > 100 µM
GI50 (RPMI-8226 leukemia): 2.32 µM
TGI (RPMI-8226 leukemia): 17 µM
GI50 (HS 578T breast): 2.59 µM
TGI (HS 578T breast): 7.96 µM
GI50 (MOLT-4 leukemia): 3.92 µM
TGI (MOLT-4 leukemia): 22.2 µM
GI50 (SNB-75 CNS): 3.39 µM
TGI (SNB-75 CNS): 23 µM
GI50 (DU-145 prostate): 4.51 µM
TGI (DU-145 prostate): 59.9 µM
GI50 (NCI-H460 lung): 3.48 µM
TGI (NCI-H460 lung): 17 µM
GI50 (EKVX NSCLC): 8.32 µM
TGI (EKVX NSCLC): > 100 µM
GI50 (HOP-92 NSCLC): 2.61 µM
TGI (HOP-92 NSCLC): 22.4 µM
GI50 (T-47D breast): 5.02 µM
TGI (T-47D breast): 92.3 µM
GI50 (NCI/ADR-RES ovarian): 2.02 µM
TGI (NCI/ADR-RES ovarian): 7.72 µM
GI50 (BT-549 breast): 5.85 µM
TGI (BT-549 breast): 71.6 µM
GI50 (CCRF-CEM leukemia): 3.1 µM
TGI (CCRF-CEM leukemia): 45.9 µM
GI50 (RXF 393 renal): 5.91 µM
TGI (RXF 393 renal): 63.5 µM
GI50 (TK-10 renal): 5.11 µM
TGI (TK-10 renal): 65 µM
GI50 (SK-MEL-2 melanoma): 3.48 µM
TGI (SK-MEL-2 melanoma): > 100 µM
GI50 (UO-31 renal): 5.59 µM
TGI (UO-31 renal): 48.8 µM
GI50 (NCI-H226 lung): 13.3 µM
TGI (NCI-H226 lung): 78.8 µM
GI50 (SN12C renal): 5.04 µM
TGI (SN12C renal): > 100 µM
GI50 (SF-268 CNS): 4.95 µM
TGI (SF-268 CNS): 90.9 µM
GI50 (A549 NSCLC): 4.62 µM
TGI (A549 NSCLC): > 100 µM
GI50 (OVCAR-3 ovarian): 2.68 µM
TGI (OVCAR-3 ovarian): 6.45 µM
GI50 (MDA-MB-231 breast): 4.91 µM
TGI (MDA-MB-231 breast): 62.5 µM
GI50 (HL-60(TB) leukemia): 2.95 µM
TGI (HL-60(TB) leukemia): 12.8 µM
GI50 (PC-3 prostate): 7.42 µM
TGI (PC-3 prostate): > 100 µM
GI50 (COLO 205 colon): 3.66 µM
TGI (COLO 205 colon): 14.7 µM
GI50 (SK-OV-3 ovarian): 4.67 µM
TGI (SK-OV-3 ovarian): 82.2 µM
GI50 (SNB-19 CNS): 5.95 µM
TGI (SNB-19 CNS): > 100 µM
